Data taken from patent US7138238B2, “Ligand sensor devices and uses thereof” (priority 2001, dated 2006).
Where two headings read alike, the source gives them in different places. Primed or numbered codes have the meaning given here. Ends that are not written are not given here. Biotin′ = not defined here

What was measured:
murine liver homogenate = experiment: Ligand sensor device selectivity assay, murine liver homogenate; type: binding, mouse
Protocol: (§1) Identification of a peptide of interest. Mice were euthanized with carbon dioxide gas and cats were euthanized with an overdose of pentobarbital administered intravenously (the use of animals was approved by the Auburn University Animal Care and Use Committee). After death, animals were perfused with ice-cold Phosphate Buffered Saline (PBS). Samples of mouse and cat skeletal muscle, mouse kidney, liver and brain were harvested. Tissue aliquots (200 mg) were homogenized in 4 ml PBS using a manual homogenizer. Immediately after homogenization samples were microcentrifuged for 10 min at 3,000 rpm, and the supernatants containing tissue vesicles were separated from the pellets. […] Vesicle concentration and integrity were examined by dark-field microscopy (Vodyanoy et al. (1994) Langmuir 10: 1354–1357). Dilutions of tissue samples were prepared in PBS as follows: 1:5, 1:25, 1:125, and 1:625. To perform the blocking experiment, free ASSLNIA peptide (1 mg/ml) synthesized by Research Genetics, Inc. (Huntsville, Ala., USA) was added to the murine skeletal muscle tissue homogenate (50 mg/ml) and incubated at room temperature for 1 hour with agitation. Protein concentration in tissue samples was determined using Bio-Rad® Protein Assay Kit (Bio-Rad Laboratories, Hercules, Calif., USA).
(§2) Coupling the peptide of interest to the sensor. The sensor, prepared as described above by the addition of a Langmuir-Blodgett film of biotinylated lipid, was then coupled to the peptide of interest by molecular assembly with streptavidin. Streptavidin was diluted to a final concentration of 0.01 mg/ml in the subphase solution and exposed to the LB film for 2 hours; the film was then rinsed with distilled water and dried for 2 min in ambient air. […] If necessary, this preparation step could be followed by a blocking step with a biotin solution. In this manner, the peptide of interest was coupled with the phospholipid via molecular assembly with streptavidin (see FIG. 1), thereby coupling the peptide of interest to the sensor to create the ligand sensor device (LSD). Each LSD was placed in an individual Petri dish and stored no longer than 24 hours at 4° C. until affinity assays were performed.
(§3) Quantifying the signal output from the ligand sensor device (LSD). Measurements were carried out using a PM-740 Maxtek plating monitor with a frequency resolution of 0.5 Hz at 5 MHz. […]
(§4) To evaluate the affinity of a ligand, the LSD was positioned in the probe arm of the instrument just before delivery of samples. Immediately after recording was started, 1000 μl phosphate buffered saline (PBS) was delivered with a pipette to the dry sensor surface and voltage was recorded for 4–8 minutes. […] Voltage output of the LSD was recorded and records were analyzed offline. […]

murine brain homogenate = experiment: Ligand sensor device selectivity assay, murine brain homogenate; type: binding, mouse
Protocol: as §1, §2, §3, §4

[1] = target: murine skeletal muscle homogenates; experiment: Ligand sensor device (acoustic wave sensor) binding assay, murine muscle homogenate; design: species or system mouse; conditions: for Kd: read-out: apparent dissociation constant Kd
Protocol: as §1, with “USA). […]” for “USA).”
(§5) Preparation of the sensor. AT-cut planar quartz crystal sensors with a 5 MHz nominal oscillating frequency were purchased from Maxtek, Inc. Circular gold electrodes were deposited on both sides of the crystal sensor for the electrical connection to the oscillatory circuit. The sensor was prepared to be coupled to the peptide by the addition of a Langmuir-Blodgett film of biotinylated lipid. Lipid monolayer depositions were carried out using a Langmuir-Blodgett (LB) film balance KSV 2200 LB (KSV-Chemicals, Finland). This fully computerized system includes a Wilhelmy-type surface balance (range 0–100 mN/m; sensitivity 0.05 mN/m), a Teflon trough (45×15 cm^2), a variable speed motor-driven Teflon barrier (0–200 mm/min), and a laminar flow hood. The trough was mounted on a 200 kg marble table. Vibration control was provided by interposing rubber shock absorbers and by mounting the laminar flow hood on a separate bench. Surface pressure was monitored by use of a sandblasted platinum plate of 4-cm perimeter. The temperature of the aqueous subphase (20° C. ±0.1° C.) was controlled by water circulation through a quartz tube coil on the bottom of the trough. The temperature of the aqueous subphase was measured by a thermistor located just below the air/liquid interface.
Monolayers were transferred onto the gold surface of an acoustic wave sensor using the Langmuir-Blodgett technique. Lipid solutions were spread on the aqueous subphase as hexane solutions (1 mg/ml) containing 2% ethanol (Ito et al. (1989) Thin Solid Films 180: 1–13). The lipid solutions contained phospholipid (N (biotinoyl)-1,2-dihexadecanoyl-SN-glycero-3-phosphoethanolamine). The aqueous subphase was a solution containing 55 mM KCl, 4 mM NaCl, 0.1 mM CaCl2, 1 mM MgCl2 and 2 mM 3-(N-morpholino)-propanesulfonic acid (MOPS) made with deionized double distilled water (pH 7.4). After spreading, the monolayer was allowed to equilibrate and stabilize for 10 min at 19° C.

[2] = test system: feline skeletal muscle homogenate; experiment: Ligand sensor device binding assay, feline muscle homogenate; design: species or system cat
Protocol: as §1
A 7-mer phage display peptide library (New England Biolabs, Inc., Beverly, Mass., USA) was screened as described in Samoylova and Smith (1999) Muscle & Nerve 22: 460–466.
as §5, with “interface. […]” for “interface.”

murine kidney homogenate = experiment: Ligand sensor device selectivity assay, murine kidney homogenate; type: binding, mouse
Protocol: as §1, §2
Quantifying the signal output from the ligand sensor device (LSD). Measurements were carried out using a PM-740 Maxtek plating monitor with a frequency resolution of 0.5 Hz at 5 MHz. The voltage output from the Maxtek device is directly related to the resonance frequency of the quartz crystal sensor. Changes in the resonance frequency of the quartz crystal sensor were used to monitor the binding of homogenate vesicles to the sensor surface.
To evaluate the affinity of a ligand, the LSD was positioned in the probe arm of the instrument just before delivery of samples. Immediately after recording was started, 1000 μl phosphate buffered saline (PBS) was delivered with a pipette to the dry sensor surface and voltage was recorded for 4–8 minutes. The PBS was then removed carefully with a plastic pipette tip and a new recording was initiated. Tissue homogenates of different dilutions were added sequentially to the sensor and the same measuring procedure was followed after each addition. Each experiment was replicated 2–4 times, and the temperature of all samples was 25° C. Voltage output of the LSD was recorded and records were analyzed offline.
Binding selectivity of the Ligand Sensor Device.

[3] = Table 1, blocked muscle: homogenate (50 mg/ml) incubated with free peptide (1 mg/ml) 1 hour at room temperature
[4] = Table 2, murine muscle homogenate
[5] = Table 2, feline muscle homogenate

## 7-mer peptide selected in vivo for murine myofibers by phage display; coupled to the sensor as ASSLNIAGGGSK-Biotin (SEQ ID NO:3) (ASSLNIAGGGSK-{Biotin′}; also: coupled to the sensor)
Murine liver homogenate; Table 3, murine liver
  sensitivity (S), slope of dose response: 67.3 ± 6.0 V/decade
Murine liver homogenate; murine liver preparation
  sensor response: insignificant responses
Murine liver homogenate; murine liver, K = Stissue/Smuscle
  Selectivity coefficient, K: (5.0 ± 1.5) × 10^−1 relative units
Murine liver homogenate; murine liver, R = ΔCmuscle/ΔCtissue at protein concentration 0.01 mg/ml
  Activity ratio, R: (1.1 ± 0.4) × 10^−3 relative units
Murine brain homogenate; Table 3, murine brain
  sensitivity (S), slope of dose response: 62.5 ± 16 V/decade
Murine brain homogenate; murine brain preparation
  sensor response: insignificant responses
Murine brain homogenate; murine brain, K = Stissue/Smuscle
  Selectivity coefficient, K: (4.6 ± 1.4) × 10^−1 relative units
Murine brain homogenate; murine brain, R = ΔCmuscle/ΔCtissue at protein concentration 0.01 mg/ml
  Activity ratio, R: (3.4 ± 1.1) × 10^−3 relative units
[1]; [3]
  apparent dissociation constant Kd: 320 ± 50 µg/mL
  apparent maximal surface concentration of protein Mmax: 34.4 ± 3.0 ng/cm^2
[1]; Table 1, murine muscle homogenate, calculated from Hill plots
  apparent dissociation constant Kd: 280 µg/mL
[1]; Table 1, murine muscle homogenate, estimated from increase of sensor voltage
  apparent maximal surface concentration of protein Mmax: 54.0 ± 4.0 ng/cm^2
[1]; [4]
  Mmax: 50.5 ± 3.0 ng/cm^2
  apparent dissociation constant Kd: 320 ± 50 µg/mL
[1]; Table 2, murine muscle homogenate, equation 2
  Hill coefficient: 0.92 ± 0.04
[1]; Table 3, murine muscle
  sensitivity (S), slope of dose response: 134 ± 20.0 V/decade
[1]; assuming only a fraction of molecules on vesicle surface bind the peptide
  apparent dissociation constant, level: subnanomolar level
[1]; corrected for target molecules being ~0.5% of vesicle mass
  Kd: 5 to 10 nM
[1]; murine muscle (reference), K = Stissue/Smuscle
  Selectivity coefficient, K: 1.0 relative units
[1]; murine muscle (reference), protein concentration 0.01 mg/ml
  Activity ratio, R: 1.0 relative units
[1]; murine muscle homogenate, each concentration, FIG. 2
  time to approach steady-state signal output τ2: 70 ± 20 s
[1]; murine muscle homogenate, independent of concentration, FIG. 2
  initial delay in signal output response τ1: 8 ± 1 s
[1]; murine muscle homogenates
  sensor response: strong response
[1]; murine muscle homogenates, FIG. 3
  protein concentration at which signal was saturated: about 5.0 mg/ml
[1]; preincubation of muscle homogenates with free peptide
  sensor signal after blocking: significantly reduced signal
[1]; speculating target molecule of about 75–150 kD
  Kd: 1000 to 2000 nM
[2]; [5]
  Mmax: 32.8 ± 2.0 ng/cm^2
  apparent dissociation constant Kd: 370 ± 50 µg/mL
[2]; Table 2, feline muscle homogenate, equation 2
  Hill coefficient: 0.93 ± 0.04
[2]; feline muscle homogenates, compared to murine muscle
  sensor response: appreciable, but lower responses
Murine kidney homogenate
  kidney homogenate needed to induce same response as 0.01 mg/ml muscle homogenate: more than 100 mg/ml
Murine kidney homogenate; Table 3, murine kidney
  sensitivity (S), slope of dose response: 41.8 ± 7.0 V/decade
Murine kidney homogenate; at 0.01 mg/ml muscle homogenate
  selective preference for ligand(s) in muscle over kidney homogenates, factor: more than 10,000
Murine kidney homogenate; murine kidney preparation
  sensor response: insignificant responses
Murine kidney homogenate; murine kidney, K = Stissue/Smuscle
  Selectivity coefficient, K: (3.1 ± 1.0) × 10^−1 relative units
